Consider five compounds from article PMC3112458, “Marked increase in etravirine and saquinavir plasma concentrations during atovaquone/proguanil prophylaxis” (Malaria Journal, 2011).

Details of data set [1]: method as in PMID 17297027. To be noted: cited from earlier work.
On the set-up of data set [2]: method as in PMID 17297027. To be noted: cited from earlier work. This is another data set of the same source.
Details of data set [3]: method as in PMID 20299957. To be noted: cited from earlier work.
A short description of data set [4]: 12 hour-PK of anti-retrovirals before and at day 20 of atovaquone/proguanil prophylaxis (HPLC-UV, plasma). Format: in vivo, human. To be noted: for Δ AUC0-12h (during prophylaxis AUC minus pre-prophylaxis AUC): plasma, one HIV patient, day 20 of atovaquone/proguanil 250/100 mg daily vs before prophylaxis. As for the experimental part: In September 2009, the patient planned to spend a two-week holiday in Kenya. […] Standard malaria prophylaxis with atovaquone/proguanil fixed-dose combination (250/100 mg) was prescribed: one tablet daily starting two days before the journey and ending the treatment seven days after return to Italy. A 12 hour-PK of anti-retrovirals was performed before starting prophylaxis with atovaquone/proguanil (Figure 1). The samples were collected in fasting status following this order: the first sample 12 hours after the last dose of anti-retrovirals (pre-dose); the second sample one hour after breakfast and anti-retrovirals consumption; the following samples at 2, 4, 6 and 12 hours post anti-retrovirals' intake. The second PK for the determination of anti-retrovirals' plasma concentrations during atovaquone/proguanil prophylaxis was collected at day 20 on prophylaxis with the same timing plan (Figure 1). In order to avoid any food interference with the PK results, the same diet was administered in both the PK sampling days.

Another data set has as its system CYP3A. Details: method as in PMID 19725591. To be noted: cited from earlier work.
Data set [5] relates to CYP2C9, 2C19 and P-glycoprotein. The arrangement: method as in PMID 19725591. To be noted: cited from earlier work.
For a further data set, the system named is P450 system. Details: method as in PMID 9530286, PMID 9835508. To be noted: cited from earlier work.
The subject of another data set is P-glycoprotein and MRP1. Details: method as in PMID 9530286, PMID 9835508. To be noted: cited from earlier work.

Where two headings read alike, the source gives them in different places.

As for `O=C1C(O)=C([C@H]2CC[C@H](c3ccc(Cl)cc3)CC2)C(=O)c2ccccc21` [atovaquone], the elimination half-life in data set [1] (adults) is 48 to 72 h. In addition, the “drug excreted unchanged in the faeces” value in data set [1] is 94%. For the same compound, the protein-bound in data set [2] is recorded as > 99%. For the same compound, the entries for the “geometric mean ratio (95% confidence interval) of AUC of atovaquone” value in data set [3] (patients on atazanavir/ritonavir compared with healthy volunteers), in data set [3] (patients on efavirenz compared with healthy volunteers) and in data set [3] (patients on lopinavir/ritonavir compared with healthy volunteers) were 0.54 (0.35-0.83), 0.25 (0.16-0.38) and 0.26 (0.17-0.41), respectively.
Turning to `Cc1cc(C#N)cc(C)c1Oc1nc(Nc2ccc(C#N)cc2)nc(N)c1Br` [etravirine], in data set [4], the “Δ AUC0-12h (during prophylaxis AUC minus pre-prophylaxis AUC)” value is given as “+55%”. The “induction of CYP3A” value in the data set on CYP3A is reported as “inducer”. The “inhibition of CYP2C9, 2C19 and P-glycoprotein” value in data set [5] is “mild inhibitor”.
On to `[H]/N=C(\N/C(=N/[H])Nc1ccc(Cl)cc1)NC(C)C` [proguanil], for which, in data set [1], the absolute bioavailability is recorded as ≤ 60%, the elimination half-life was 12 to 21 h and the “time to peak plasma concentrations” value was 2 to 4 h. Besides, the protein-bound in data set [2] is reported as 75%. In addition, in data set [3] (patients on efavirenz, lopinavir/ritonavir or atazanavir/ritonavir compared with healthy volunteers), the plasma concentrations lower is on record as 38-43%.
As for `Cc1nnc(C(=O)NC(C)(C)c2nc(C(=O)NCc3ccc(F)cc3)c(O)c(=O)n2C)o1` [raltegravir], the “Tmax and Cmax in post-prophylaxis versus pre-prophylaxis” value in data set [4] (PK profiles, day 20 of atovaquone/proguanil prophylaxis) was “earlier”. In addition, the “Δ AUC0-12h (during prophylaxis AUC minus pre-prophylaxis AUC)” value in data set [4] is given as -23%.
With `CC(C)(C)NC(=O)[C@@H]1C[C@@H]2CCCC[C@@H]2CN1C[C@@H](O)[C@H](Cc1ccccc1)NC(=O)[C@H](CC(N)=O)NC(=O)c1ccc2ccccc2n1` [saquinavir], the “Δ AUC0-12h (during prophylaxis AUC minus pre-prophylaxis AUC)” value in data set [4] is on record as “+274%”. Further, in the data set on P450 system, the “induction or inhibition of P450 system” value is “neither an inducer nor an inhibitor”. Besides, in the data set with P-glycoprotein and MRP1, the “interaction with P-glycoprotein and MRP1” value is “substrate and inhibitor”.
